Common to all, as to format: functional
One assay has as its system KB. In words: Cytotoxicity against human KB cells. Conditions: read-out: ED50 (the source's name).
Assay [1] has as its system P388. In words: Antileukemic activity against mouse P388 cells xenografted in mouse at 1 mg/kg dosed for 3 days relative to control.
Assay [2] concerns P388. The experiment in a line: Antileukemic activity against mouse P388 cells xenografted in mouse at 200 mg/kg dosed for 1 day relative to control.

Values after ≈ are worked out from the molar mass of the structure shown.

With `CCCC(/C=C/C=C/C=C/C#CC#CCCCOCOCc1ccccc1)OCOCc1ccccc1` (centres undefined), in the assay on KB, the EC50 is more than 4 µg/mL.
As for `CCCC(=O)/C=C/C=C/C=C/C#CC#CCCCO`, the EC50 in the assay on KB was more than 4 µg/mL.
Same read-out and setting: with `CCCC(O)CCCCCCCCCCCCCO` (centres undefined) the figure was more than 4 µg/mL.
In the case of `CCCC(/C=C/C=C/C=C/C#CC#CCCCOCOCCOC)OCOCCOC` (centres undefined), the EC50 in the assay on KB was more than 4 µg/mL.
As to `CCC[C@@H](O)/C=C/C=C/C=C/C#CC#CCCCO` [CICUTOXIN], in the assay on P388 [1], the T/C (as a rule, the ratio of treated to control) was found to be 165%. The EC50 with KB was found to be 2 µg/mL (≈ 7.74 µM).
Take `CCCC(/C=C/C=C/C=C/C#CC#CCCCOC(C)=O)OC(C)=O` (centres undefined): the EC50 with KB was more than 4 µg/mL.
As to `CCCC(O)/C=C/C=C/C=C/C#CC#CCCCOC(=O)c1ccccc1` (centres undefined), in the assay with KB, the EC50 was more than 4 µg/mL.
In the assay on P388 [2], `O=c1[nH]cc(F)c(=O)[nH]1` [FLUOROURACIL] displayed a T/C of 135%.

The values are drawn from ChEMBL document CHEMBL1149022, “Antitumor agents, 85. Cicutoxin, an antileukemic principle from Cicuta maculata, and the cytotoxicity of the related derivatives” (1986).
